The text below walks through data of patent publication US20240109863A1, “2-PYRIDONE DERIVATIVE, AND PREPARATION METHOD THEREFOR AND PHARMACEUTICAL APPLICATION THEREOF” (KPC PHARMACEUTICALS, INC, priority 2020, published 2024).

In one data set the target is T1, THRβ (Homo sapiens, UniProt P10828).
T1 construct: RXRα and THRβ-LBD Eu-anti-GST antibody with GST tag
Nature of the data set: THRβ binding assay (time-resolved FRET coactivator peptide recruitment). The data set is classed as biochemical. The note with it: THRβ-LBD/RXRα, SRC2-2 coactivator peptide recruitment, 4 hours at room temperature. How it is done: Experimental methods: In vitro analysis of the agonistic effect of compounds on THRβ was performed using time-resolved fluorescence resonance energy transfer coactivator peptide recruitment assays. The assay used biotin-SRC2-2 coactivator peptide, streptavidin-d2, RXRα and THRβ-LBD Eu-anti-GST antibody with GST tag. Eu-anti-GST antibody indirectly labeled THRβ-LBD by binding to the GST tag. Streptavidin-d2 indirectly labeled the SRC2-2 coactivator peptide by binding to the biotin tag. In the presence of RXRα, THRβ-LBD can form heterodimer THRβ-LBD/RXRα with it. […] According to the effect of different concentrations of the compound on the activity of THRβ, the agonistic ability of the compound can be evaluated.
The detailed procedure is as follows: • a. 100× reference compound or compound was prepared with DMSO, and equally diluted by 1:3. • b. 100× gradiently diluted reference compound or compound was diluted with 1× reaction buffer to 4×, which was then added to an assay plate. • c. A mixed solution of 4× THRβ-LBD and 4× RXRα was prepared with 1× reaction buffer, and added to the assay plate. • d. A mixed solution of 2× biotin-SRC2-2, 2× Eu-anti-GST, and 2× streptavidin-d2 was prepared with 1× reaction buffer, and added to the assay plate. • e. The assay plate was centrifuged at 1000 rpm for 1 min, and incubated at room temperature in the dark for 4 hours. • f.

Data set [1] in a line: In vitro liver microsome stability assay. The data set is classed as in vitro ADME. Conditions: liver microsomes, pH 7.4; human, 0.2 mg/mL liver microsomal protein, 1 μM test substance, 37° C.; read-out: Liver microsome stability (species: human): T½. The procedure: The test substance and the positive control substance verapamil were respectively dissolved with DMSO to 10 mM as a stock solution. The above 10 mM stock solution was diluted with 70% acetonitrile aqueous solution to a concentration of 0.25 mM.
An NADPH regeneration system finally containing concentrations of 6.5 mM NADP, 16.5 mM G-6-P, 3 U/mL G-6-PDH, and 3.3 mM MgCl was prepared.
Stopping solution was an acetonitrile solution containing tolbutamide and propranolol (both internal standards).
Phosphate buffer was a 100 mM K3PO4 (pH=7.4) buffer containing 3.3 mM MgCl2.
Liver microsomal incubation system was a 100 mM phosphate buffer containing 0.2 mg/mL liver microsomal protein and 1 μM test substance/positive control.
80 μL of the mixed solution from the incubation system was taken. 400 μL of the stopping solution was added to precipitate protein. The mixture was vortexed and added with 20 μL of NADPH regeneration system as the sample at 0 min.
130 μL of NADPH regeneration system was added to the remaining 520 μL of protein-drug mixed solution. The mixture was mixed well, and incubated. The final incubation system was 650 μL, containing 0.2 mg/mL liver microsomal protein, 1 μM test substance/positive control, 1.3 mM NADP, 3.3 mM G-6-P, and 0.6 U/mL G-6-PDH.
The mixed system was slowly shaken and incubated in a water bath at 37° C. 100 μL of the incubation solution was taken at 5, 10, 30, and 60 min, respectively, and added into a new 96-well plate with 400 μL of stopping solution in each well. The mixture in each well was mixed well, and the protein was precipitated by centrifuging at 4000×g for 15 minutes at 4° C.
100 μL of the supernatant was taken, and diluted with water at a ratio of 1:2. The samples were analyzed by LC-MS/MS.

Another data set concerns the target T2, THRα (Homo sapiens, UniProt P10827).
T2 construct: GST
Nature of the data set: THRα binding assay (as the THRβ assay, THRβ replaced with THRα). The note with it: for EC50: THRα in place of THRβ; for THRα/β selectivity (fold): ratio of THRα EC50 to THRβ EC50. The data set is classed as biochemical.

A value given as a limit tells only on which side of the number the result lay.

T2 sequence (P10827 1-410 isoform P10827-2, other chains not shown): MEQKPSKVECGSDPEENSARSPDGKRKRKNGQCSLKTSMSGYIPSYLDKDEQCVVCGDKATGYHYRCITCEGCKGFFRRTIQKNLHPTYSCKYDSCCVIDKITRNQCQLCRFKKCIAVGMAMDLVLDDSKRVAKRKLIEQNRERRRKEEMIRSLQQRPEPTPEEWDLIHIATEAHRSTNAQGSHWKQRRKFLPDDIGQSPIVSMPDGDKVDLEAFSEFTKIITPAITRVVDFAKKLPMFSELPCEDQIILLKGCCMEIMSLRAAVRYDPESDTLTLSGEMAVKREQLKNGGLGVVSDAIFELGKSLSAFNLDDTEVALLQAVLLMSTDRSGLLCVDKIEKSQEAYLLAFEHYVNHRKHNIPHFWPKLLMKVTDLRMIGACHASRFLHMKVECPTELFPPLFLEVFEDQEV
T2 sequence (P19793 whole entry partner, other chains not shown): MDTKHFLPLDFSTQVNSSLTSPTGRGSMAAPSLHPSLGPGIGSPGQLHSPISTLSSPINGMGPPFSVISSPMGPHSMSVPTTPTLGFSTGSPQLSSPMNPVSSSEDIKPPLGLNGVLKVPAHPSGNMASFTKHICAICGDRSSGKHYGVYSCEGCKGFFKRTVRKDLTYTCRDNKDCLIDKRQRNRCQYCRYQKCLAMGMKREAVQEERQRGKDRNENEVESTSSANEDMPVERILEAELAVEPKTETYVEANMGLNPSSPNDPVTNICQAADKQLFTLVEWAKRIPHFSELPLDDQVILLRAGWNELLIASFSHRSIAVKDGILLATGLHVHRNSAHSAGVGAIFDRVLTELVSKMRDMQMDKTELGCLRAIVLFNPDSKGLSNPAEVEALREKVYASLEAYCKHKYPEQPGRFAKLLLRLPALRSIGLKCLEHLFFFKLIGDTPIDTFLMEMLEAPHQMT
T1 sequence (P10828 217-461 limits assumed, other chains not shown): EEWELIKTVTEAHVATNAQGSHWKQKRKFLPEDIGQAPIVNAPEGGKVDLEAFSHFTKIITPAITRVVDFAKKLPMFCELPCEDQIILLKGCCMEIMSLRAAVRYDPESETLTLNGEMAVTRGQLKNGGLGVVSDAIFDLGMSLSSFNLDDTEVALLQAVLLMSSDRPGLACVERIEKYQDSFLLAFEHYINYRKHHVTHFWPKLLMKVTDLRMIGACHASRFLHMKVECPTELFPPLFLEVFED
T1 sequence (P19793 whole entry partner, other chains not shown, the tested form may be a part): as the sequence (P19793 whole entry partner, other chains not shown) above

In general, EC50 refers to the concentration at which the effect is half-maximal. Low readings indicate higher potency in that assay, high ones lower potency in that assay. For the molecule `N#Cc1nn(-c2cc(Cl)c(Oc3cc(Cl)c(=O)n(C4CCCC4)c3)c(Cl)c2)c(=O)[nH]c1=O` [Example 15, 2-(3,5-Dichloro-4-[(5-chloro-1-cyclopentyl-6-oxo-1,6-dihydropyridin-3-yl)oxy]phenyl) -3,5-dioxo-2,3,4,5-tetrahydro-1,2,4-triazine-6-carbonitrile], on THRβ, it took 793 nM to reach a half-maximal effect (EC50). Besides, the half-life at 1 μM in data set [1] stood at 11.5 min.

For `Cc1cc(Oc2c(Cl)cc(-n3nc(C#N)c(=O)[nH]c3=O)cc2Cl)cn(C2CCCC2)c1=O` [Example 17, 2-(3,5-Dichloro-4-[(1-cyclopentyl-5-methyl-6-oxo-1,6-dihydropyridin-3-yl)oxy]phenyl) -3,5-dioxo-2,3,4,5-tetrahydro-1,2,4-triazine-6-carbonitrile], the EC50 on THRβ came to 450 nM. Moreover, in data set [1], the half-life at 1 μM turned out to be 3.2 min.

The molecule `N#Cc1nn(-c2cc(Cl)c(Oc3ccc(=O)n(CC4CCCC4)c3)c(Cl)c2)c(=O)[nH]c1=O` [Example 5, 2-(3,5-Dichloro-4-((1-(cyclopentylmethyl)-6-oxo-1,6-dihydropyridin-3-yl)oxy)phenyl) -3,5-dioxo-2,3,4,5-tetrahydro-1,2,4-triazine-6-carbonitrile] displayed an EC50 on THRβ of 20 nM. The half-life at 1 μM in data set [1] stood at 2.1 min.

`N#Cc1nn(-c2cc(Cl)c(Oc3ccc(=O)n(C4CCCCC4)c3)c(Cl)c2)c(=O)[nH]c1=O` [Example 9, 2-(3,5-Dichloro-4-((1-cyclohexyl-6-oxo-1,6-dihydropyridin-3-yl)oxy)phenyl)-3,5-dioxo-2,3,4,5-tetrahydro-1,2,4-triazine-6-carbonitrile]: the response on THRβ was half-maximal at 12 nM (EC50). For the same molecule, in data set [1], the half-life at 1 μM amounted to 7 min.

Molecule `N#Cc1nn(-c2cc(Cl)c(Oc3ccc(=O)n(C4CCCC4)c3)c(Cl)c2)c(=O)[nH]c1=O` [Example 12] had an EC50 at THRβ of 18 nM. The half-life at 1 μM in data set [1] was determined as 4.4 min.

As for `O=c1[nH]c(=O)n(-c2cc(Cl)c(Oc3ccc(=O)n(-c4ccccc4)c3)c(Cl)c2)nc1CF` [Example 35, 2-(3,5-dichloro-4-((6-oxo-1-phenyl-1,6-dihydropyridin-3-yl)oxy)phenyl)-6-(fluoromethyl)-1,2,4-triazine-3,5(2H, 4H)-dione], it took 6 nM to reach a half-maximal effect at THRβ (EC50). In addition, at THRα, the EC50 was determined as 220 nM and the “THRα/β selectivity (fold)” value is reported as 36.7 fold. Also, the half-life at 1 μM in data set [1] is above 120 min.

Regarding `O=c1[nH]c(=O)n(-c2cc(Cl)c(Oc3ccc(=O)n(-c4ccc(F)cc4)c3)c(Cl)c2)nc1CF` [Example 37, 2-(3,5-dichloro-4-((1-(4-fluorophenyl)-6-oxo-1,6-dihydropyridin-3-yl)oxy)phenyl)-6-(fluoromethyl)-1,2,4-triazine-3,5(2H, 4H)-dione], on THRβ, the EC50 amounted to 92 nM. On THRα, a half-maximal response (EC50) required 9260 nM and the “THRα/β selectivity (fold)” value is on record as 100.6 fold.

In the case of `Cc1cc(C)cc(-n2cc(Oc3c(Cl)cc(-n4nc(CF)c(=O)[nH]c4=O)cc3Cl)ccc2=O)c1` [Example 42, 2-(3,5-Dichloro-4-((1-(3,5-dimethylphenyl)-6-oxo-1,6-dihydropyridin-3-yl)oxy)phenyl) -6-(fluoromethyl)-1,2,4-triazine-3,5(2H, 4H)-dione], the values for the EC50 at THRβ and at THRα were 9 nM and 696 nM, respectively. Further, the “THRα/β selectivity (fold)” value at THRα is 72.5 fold.

For the molecule `Cc1ccc(-n2cc(Oc3c(Cl)cc(-n4nc(CF)c(=O)[nH]c4=O)cc3Cl)ccc2=O)cc1` [Example 41, 2-(3,5-dichloro-4-((6-oxo-1-(p-tolyl)-1,6-dihydropyridin-3-yl)oxy)phenyl)-6-(fluoromethyl)-1,2,4-triazine-3,5(2H, 4H)-dione], at THRβ, it took 117 nM to reach a half-maximal effect (EC50). Further, on THRα, the EC50 came out at 7630 nM and the “THRα/β selectivity (fold)” value stood at 53.7 fold.

`N#Cc1nn(-c2cc(Cl)c(Oc3cc(F)c(=O)n(C4CCCC4)c3)c(Cl)c2)c(=O)[nH]c1=O` [Example 16, 2-(3,5-Dichloro-4-((1-cyclopentyl-5-fluoro-6-oxo-1,6-dihydropyridin-3-yl)oxy)phenyl) -3,5-dioxo-2,3,4,5-tetrahydro-1,2,4-triazine-6-carbonitrile] displayed an EC50 on THRβ of 370 nM. Moreover, the half-life at 1 μM in data set [1] was 5.1 min.

In the case of `N#Cc1nn(-c2cc(Cl)c(Oc3ccc(=O)n(-c4ccccc4)c3)c(Cl)c2)c(=O)[nH]c1=O` [Example 20, 2-(3,5-dichloro-4-((6-oxo-1-phenyl-1,6-dihydropyridin-3-yl)oxy)phenyl)-3,5-dioxo-2,3,4,5-tetrahydro-1,2,4-triazine-6-carbonitrile], the EC50 at THRβ came out at 88 nM. Moreover, at THRα, the midpoint of the response, the EC50, lay at 4180 nM and the “THRα/β selectivity (fold)” value is on record as 47.5 fold. Moreover, the half-life at 1 μM in data set [1] was above 120 min.

At THRβ, `N#Cc1nn(-c2cc(Cl)c(Oc3ccc(=O)n(-c4cccc(C(F)(F)F)c4)c3)c(Cl)c2)c(=O)[nH]c1=O` [Example 23, 2-(3,5-dichloro-4-((6-oxo-1-(3-(trifluoromethyl)phenyl)-1,6-dihydropyridin-3-yl)oxy)phenyl)-3,5-dioxo-2,3,4,5-tetrahydro-1,2,4-triazine-6-carbonitrile] registered an EC50 of 26 nM. In addition, at THRα, the EC50 amounted to 2690 nM and the “THRα/β selectivity (fold)” value is on record as 103.3 fold.

On THRβ, `Cc1nn(-c2cc(Cl)c(Oc3ccc(=O)n(-c4ccccc4)c3)c(Cl)c2)c(=O)[nH]c1=O` [Example 36, 2-(3,5-Dichloro-4-((6-oxo-1-phenyl-1,6-dihydropyridin-3-yl)oxy)phenyl)-6-methyl-1,2,4-triazine-3,5(2H, 4H)-dione] showed a 50% effective concentration (EC50) of 18 nM. Also, on THRα, the EC50 turned out to be 351 nM and the “THRα/β selectivity (fold)” value worked out at 19.5 fold.

On THRβ, `N#Cc1nn(-c2cc(Cl)c(Oc3ccc(=O)n(C4=CCCC4)c3)c(Cl)c2)c(=O)[nH]c1=O` [Example 11, 2-(3,5-Dichloro-4-((1-(cyclopentyl-1-en-1-yl)-6-oxo-1,6-dihydropyridin-3-yl)oxy)phenyl)-3,5-dioxo-2,3,4,5-tetrahydro-1,2,4-triazine-6-carbonitrile] showed an EC50 of 17 nM. At THRα, a half-maximal response (EC50) required 236 nM and the “THRα/β selectivity (fold)” value amounted to 13.9 fold. For the same molecule, the half-life at 1 μM in data set [1] came to 41.6 min.

In the case of `N#Cc1nn(-c2cc(Cl)c(Oc3ccc(=O)n(C4CCC4)c3)c(Cl)c2)c(=O)[nH]c1=O` [Example 3, 2-(3,5-dichloro-4-[(1-cyclobutyl-6-oxo-1,6-dihydropyridin-3-yl)oxy]phenyl)-3,5-dioxo-2,3,4,5-tetrahydro-1,2,4-triazine-6-carbonitrile], the concentration for a half-maximal effect (EC50) on THRβ turned out to be 23 nM; on THRα, 290 nM. In addition, the “THRα/β selectivity (fold)” value on THRα is 12.6 fold. Further, the half-life at 1 μM in data set [1] is 62.8 min.

As to `[2H]C1(n2cc(Oc3c(Cl)cc(-n4nc(C#N)c(=O)[nH]c4=O)cc3Cl)ccc2=O)CCCC1` [Example 14], a half-maximal response on THRβ (EC50) required 30 nM. At THRα, the EC50 is 600 nM and the “THRα/β selectivity (fold)” value was 20.0 fold. Also, the half-life at 1 μM in data set [1] came out at 4.6 min.

`N#Cc1nn(-c2cc(Cl)c(Oc3ccc(=O)n(C4CC4)c3)c(Cl)c2)c(=O)[nH]c1=O` [Example 10, 2-(3,5-Dichloro-4-((1-cyclopropyl-6-oxo-1,6-dihydropyridin-3-yl)oxy)phenyl)-3,5-diox o-2,3,4,5-tetrahydro-1,2,4-triazine-6-carbonitrile] returned an EC50 at THRβ of 107 nM. Also, the half-life at 1 μM in data set [1] was above 120 min.

Consider `N#Cc1nn(-c2cc(Cl)c(Oc3ccc(=O)n(C4CCCC4=O)c3)c(Cl)c2)c(=O)[nH]c1=O` (stereo not drawn) [Example 4, 2-(3,5-dichloro-4-((6-oxo-1-(2-oxocyclopentyl)-1,6-dihydropyridin-3-yl)oxy)phenyl)-3,5-dioxo-2,3,4,5-tetrahydro-1,2,4-triazine-6-carbonitrile], for which the 50% effective concentration (EC50) at THRβ is 561 nM. For the same molecule, the half-life at 1 μM in data set [1] turned out to be 110 min.
